Test results taken from the supplement of paper PMC10307832.

Legend:
Experiment in all cases: relative viability (nuclei count vs DMSO), 5 days (fraction); higher = more cells survive
[1] = compound: C[C@]1(O)C[C@@H](c2nc(-c3ccc4ccc(-c5ccccc5)nc4c3)c3c(N)nccn32)C1 [Linsitinib] + O=C(c1cc(Cc2n[nH]c(=O)c3ccccc23)ccc1F)N1CCN(C(=O)C2CC2)CC1 [Olaparib] (partner 8 µM)
How it was run: (§1)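 One day after seeding in 1536-well plates, lung cancer cell lines were dosed by pin tool. Dosing was either single-drug or a fixed anchor-drug dose plus five library-drug doses (not always all listed) in √10 steps. After 5 days, nuclei were stained in one fix-and-stain step and counted on 4× images, and relative viability is the nuclei count of treated wells over that of vehicle wells, given as the median of duplicate plates.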

[2] = compound: Cc1ccc(C(=O)N(CCCN)[C@@H](c2nc3cc(Cl)ccc3c(=O)n2Cc2ccccc2)C(C)C)cc1 [Ispinesib] + CS(=O)(=O)N1CCN(Cc2cc3nc(-c4cccc5[nH]ncc45)nc(N4CCOCC4)c3s2)CC1 [Pictilisib] (partner 1 µM)
How it was run: as §1

[3] = compound: C[C@]1(O)C[C@@H](c2nc(-c3ccc4ccc(-c5ccccc5)nc4c3)c3c(N)nccn32)C1 [Linsitinib] + CS(=O)(=O)CCNCc1ccc(-c2ccc3ncnc(Nc4ccc(OCc5cccc(F)c5)c(Cl)c4)c3c2)o1 [Lapatinib] (partner 2 µM)
How it was run: as §1

[4] = compound: Cc1ccc(C(=O)N(CCCN)[C@@H](c2nc3cc(Cl)ccc3c(=O)n2Cc2ccccc2)C(C)C)cc1 [Ispinesib] + Cc1cc(Nc2cc(N3CCN(C)CC3)nc(Sc3ccc(NC(=O)C4CC4)cc3)n2)n[nH]1 [Tozasertib] (partner 0.1 µM)
How it was run: as §1

Row | Cell Line | relative viability ([1]; first compound 0.01 µM) | relative viability ([1]; first compound 0.03162 µM) | relative viability ([1]; first compound 0.1 µM) | relative viability ([1]; first compound 0.3162 µM) | relative viability ([1]; first compound 1 µM) | relative viability ([2]; first compound 0.001 µM) | relative viability ([2]; first compound 0.003162 µM) | relative viability ([2]; first compound 0.01 µM) | relative viability ([2]; first compound 0.03162 µM) | relative viability ([2]; first compound 0.1 µM) | relative viability ([3]; first compound 0.01 µM) | relative viability ([3]; first compound 0.03162 µM) | relative viability ([3]; first compound 0.1 µM) | relative viability ([3]; first compound 0.3162 µM) | relative viability ([3]; first compound 1 µM) | relative viability ([4]; first compound 0.001 µM) | relative viability ([4]; first compound 0.003162 µM) | relative viability ([4]; first compound 0.01 µM) | relative viability ([4]; first compound 0.03162 µM) | relative viability ([4]; first compound 0.1 µM)
1 | SK-MES-1 | 0.702 | 0.784 | 0.633 | 0.584 | 0.557 | 0.374 | 0.334 | 0.447 | 0.35 | 0.24 | 0.434 | 0.456 | 0.467 | 0.462 | 0.435 | 0.983 | 1.03 | 0.949 | 0.217 | 0.215
2 | EKVX |  | 0.861 | 0.951 | 0.489 | 0.648 | 0.442 | 0.423 | 0.508 | 0.543 | 0.438 | 0.212 | 0.262 | 0.231 | 0.23 | 0.161 | 0.417 | 0.386 | 0.424 | 0.373 | 0.223
3 | EPLC-272H | 1.42 | 0.694 | 0.841 | 0.469 | 0.479 | 0.295 | 0.337 | 0.338 | 0.258 | 0.142 | 0.977 | 0.948 | 0.999 |  | 0.736 | 0.211 | 0.448 | 0.24 | 0.114 | 0.25
4 | LK-2 | 0.63 | 0.721 | 0.683 | 0.415 | 0.389 | 0.645 | 0.632 | 0.744 | 0.438 | 0.443 | 0.899 | 0.995 | 0.844 | 0.657 | 0.695 | 0.159 | 0.175 | 0.183 | 0.158 | 0.158
5 | CAL-12T | 0.79 | 0.899 | 0.784 | 0.689 | 0.713 | 0.413 | 0.545 | 0.523 | 0.295 | 0.172 | 0.705 | 0.613 | 0.655 | 0.576 | 0.518 | 0.244 | 0.361 | 0.296 | 0.213 | 0.222
6 | NCI-H322M | 0.746 | 0.875 | 0.87 | 0.772 | 0.798 | 0.527 | 0.489 | 0.54 | 0.44 | 0.397 | 0.63 | 0.612 | 0.567 | 0.933 | 0.507 | 0.531 | 0.275 | 0.445 | 0.333 | 0.396
7 | NCI-H1650 | 0.871 | 0.954 | 0.883 | 0.735 | 0.523 | 0.586 | 0.576 | 0.338 | 0.164 | 0.266 | 0.8 | 0.84 | 0.777 | 0.164 | 0.481 | 0.382 | 0.364 | 0.397 | 0.139 | 0.257
8 | SW 1573 | 0.497 | 0.563 | 0.432 | 0.329 | 0.348 | 0.483 | 0.469 | 0.715 | 0.474 | 0.232 | 1.18 | 1.3 | 1.05 | 0.939 | 0.933 | 0.18 | 0.19 | 0.174 | 0.194 | 0.131
9 | NCI-H2405 | 0.881 | 0.879 | 0.886 | 0.705 | 0.699 | 0.543 | 0.455 | 0.395 | 0.317 | 0.201 | 1.12 | 1.04 | 1.07 | 0.887 | 0.735 | 0.798 | 0.7 | 0.858 | 0.771 | 0.965
10 | HCC-44 | 1.01 | 0.924 | 1 | 0.858 | 0.916 | 0.768 | 0.858 | 0.68 | 0.646 | 0.106 | 1.02 | 0.859 | 0.983 | 0.357 | 0.63 | 0.928 | 1.05 | 1.09 | 0.679 | 0.209
11 | RERF-LC-KJ | 0.933 | 0.884 | 0.841 | 0.847 | 0.538 | 0.508 | 1.42 | 0.445 | 0.322 | 0.297 | 0.8 | 0.846 | 0.826 | 0.554 | 0.645 | 0.593 | 0.412 | 0.329 | 0.262 | 0.354
12 | NCI-H1975 | 0.775 | 0.678 | 0.737 | 0.645 | 0.584 | 0.295 | 0.276 | 0.272 | 0.153 | 0.164 | 0.825 | 0.82 | 0.866 | 1.04 | 0.684 | 0.964 | 0.956 | 0.795 | 0.557 | 0.215
13 | LCLC-97TM1 | 0.504 | 0.548 | 0.353 | 0.257 | 0.437 | 0.251 | 0.187 | 0.192 | 0.111 | 0.126 | 0.953 | 0.75 | 0.639 | 0.403 | 0.193 | 0.196 | 0.143 | 0.215 | 0.173 | 0.191
14 | NCI-H520 | 0.349 | 0.395 | 0.344 |  | 0.346 | 0.353 | 0.276 | 0.295 | 0.181 | 0.172 | 0.934 | 0.462 | 0.979 |  | 0.929 | 0.419 | 0.466 | 0.41 | 0.499 | 0.422
15 | A-427 | 0.71 | 0.73 | 0.75 |  | 0.584 | 0.805 | 0.829 | 0.891 | 0.388 | 0.177 | 1.02 | 0.723 | 1.06 |  | 1.08 | 0.203 | 0.216 | 0.189 | 0.185 | 0.23
